Data published in US4217366A, “Pharmaceutically active 2-(4-aminobutoxy)stilbenes” (Mitsubishi Chemical Industries, Ltd., priority 1978, dated 1980).

What was measured:
[1] = system: maximal electroshock seizure (MES); assay: Anti-MES action: protection against tonic extensor (TE) induced by electroshock via a pair of ear electrodes; format: in vivo, ddy strain male mice
Description: Animals used were ddy strain male mice (20-22 g) and Wistar strain male rats (150-170 g). Anticonvulsant actions were determined by the ability of the compounds to prevent pentylenetetrazol (PTZ) convulsion and maximal electroshock seizure (MES), using 8 mice per group. Anti-MES action was also judged by the protection against TE induced by electroshock via a pair of ear electrodes ([…] al., J. Pharmacol. exp. Therap., 127 55 (1959)). The results were expressed as 50% effective dose (ED50, mg/kg po) or an inhibition percentage at certain doses used.

[2] = system: pentylenetetrazol (PTZ) convulsion; assay: Anti-PTZ action: protection against tonic extensor (TE) induced by intraperitoneal pentylenetetrazol (100 mg/kg i.p.); format: in vivo, ddy strain male mice; conditions: for ED50 / inhibition at 50 mg/kg: Mus musculus; for inhibition at 50 mg/kg: at 50 mg/kg po (given as <50*)
Description: (§1) Animals used were ddy strain male mice (20-22 g) and Wistar strain male rats (150-170 g). Anticonvulsant actions were determined by the ability of the compounds to prevent pentylenetetrazol (PTZ) convulsion and maximal electroshock seizure (MES), using 8 mice per group. Anti-PTZ action was judged by the protection against tonic extensor (TE) induced by intraperitoneal injection of PTZ (100 mg/kg i.p.) (K. Nakamura et al., Arch. int. Pharmacodyn., 156 261 (1965)). The results were expressed as 50% effective dose (ED50, mg/kg po) or an inhibition percentage at certain doses used.

[3] = LD50 in mice, method of Litchfield-Wilcoxon; format: in vivo; conditions: mouse, in vivo, po
Description: (§2) Animals used were ddy strain male mice (20-22 g) and Wistar strain male rats (150-170 g).
(§3) LD50 was calculated by the method of Litchfield-Wilcoxon (J. T. Litchfield and F. Wilcoxon, J. Pharmacol. exp. Therap., 96 99 (1949)).

[4] = LD50 in rats, method of Litchfield-Wilcoxon
Description: as §2, §3

[5] = system: maximal electroshock seizure (MES) and pentylenetetrazol (PTZ) convulsion; assay: antiepileptic efficacy (anti-MES and anti-PTZ) compared with trimethadione and methotoin; format: in vivo, ddy strain male mice; conditions: from Table 2
Description: as §1, with “(1965)). Anti-MES action was also judged by the protection against TE induced by electroshock via a pair of ear electrodes ([…] al., J. Pharmacol. exp. Therap., 127 55 (1959)).” for “(1965)).”

[6] = in vivo
Description: as §3

Mice = assay: LD50 in mice, method of Litchfield-Wilcoxon; format: in vivo; conditions: mice, po
Description: as §2, §3

Rat = conditions: po, from "Iyakuhin Kenkyuho" (page 258), Asakura Shoten (1968); cited from earlier work
grand-mal seizure = conditions: well known antiepileptic agent; cited from earlier work
peti-mal seizure = conditions: well known antiepileptic agent; cited from earlier work
[7] = Mus musculus, 50% effective dose, po, 8 mice per group
[8] = 50% effective dose, po, PTZ 100 mg/kg i.p., 8 mice per group

SMILES	ED50 [1, 7] [mg/kg]	ED50 [2, 8] [mg/kg]	LD50 ([3]; mice) [mg/kg]	antiepileptic efficacy [5]	inhibition at 50 mg/kg [2] [%]	other results
CN(C)CCCCOc1ccccc1C=Cc1ccccc1.Cl [Example 1, 2-(4-dimethylaminobutoxy)stilbene hydrochloride]	38	17.8	1300	much greater than that of trimethadione and methotoin		LD50 ([4]; in vivo; rat, po): 2000 mg/kg; level of toxicity [6]: low level of toxicity
CCC1(c2ccccc2)NC(=O)N(C)C1=O (stereo not drawn) [Methotoin, reference compound]						ED50 Anti-MES ([1]; 50% effective dose, po, 8 mice per group): 91.3 mg/kg PO; ED50 Anti-PTZ [2, 8]: 51.9 mg/kg PO; LD50 Mice (Mice): 475 mg/kg PO; LD50 Rat (literature) (Rat): 2,500 mg/kg PO; effectiveness against grand-mal seizure (grand-mal seizure): effective against grand-mal seizure
CN1C(=O)OC(C)(C)C1=O [Trimethadione, reference compound]	1180	230	2200			effectiveness against peti-mal seizure (peti-mal seizure): effective against peti-mal seizure
CNCCCCOc1ccccc1C=Cc1ccccc1 [compound 2]	60	22.5	839			
CN1CCN(CCCCOc2ccccc2C=Cc2ccccc2)CC1 [compound 3]	35.5	21.1		much greater than that of trimethadione and methotoin		LD50 [3]: 1050 mg/kg; LD50 ([4]; rat, in vivo, po): 2300 mg/kg; level of toxicity [6]: low level of toxicity
OCCN1CCN(CCCCOc2ccccc2C=Cc2ccccc2)CC1 [compound 4]	76.1	16.3	1050			
C(=Cc1ccccc1OCCCCN1CCCCC1)c1ccccc1 [compound 5]	60	< 50	621		100	
OC1CCCN(CCCCOc2ccccc2C=Cc2ccccc2)C1 (stereo not drawn) [compound 6]	20	14	415	much greater than that of trimethadione and methotoin		
C(=Cc1ccccc1OCCCCN1CCCC1)c1ccccc1 [compound 7]	65	< 50	600		87.5	
CCCN1CCN(CCCCOc2ccccc2C=Cc2ccccc2)CC1 [compound 8]		< 50			85	inhibition at 50 mg/kg ([1]; Mus musculus, at 50 mg/kg po): 40%
